Experimental data reported in patent publication US20230090255A1, “MAGL INHIBITOR, PREPARATION METHOD THEREFOR AND USE THEREOF” (LUNAN PHARMACEUTICAL GROUP CORPORATION, priority 2019, published 2023).

Columns and labels:
[1] = biological target: T1, recombinant human protein MAGL (Homo sapiens, UniProt Q99685); test: MAGL enzyme analysis (Cayman MAGL inhibitor screening kit); type: biochemical; details: 4-nitrophenylacetic acid substrate, absorbance 410 nm, read-out: MAGLXIC50
T1 construct: purchased Cayman
T1 sequence (Q99685 1-303): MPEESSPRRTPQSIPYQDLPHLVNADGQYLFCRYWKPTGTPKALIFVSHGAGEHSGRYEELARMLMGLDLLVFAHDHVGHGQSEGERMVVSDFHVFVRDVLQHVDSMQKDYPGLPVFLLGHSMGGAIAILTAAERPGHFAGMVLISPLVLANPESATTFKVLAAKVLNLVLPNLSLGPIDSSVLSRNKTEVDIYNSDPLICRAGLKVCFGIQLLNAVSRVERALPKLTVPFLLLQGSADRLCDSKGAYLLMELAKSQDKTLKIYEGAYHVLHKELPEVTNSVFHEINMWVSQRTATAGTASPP
Description: 150 µL 1Xassay buffer, 10 µL recombinant human protein MAGL and 10 µL different concentrations of MAGL inhibitors (six points within 1 nM to 1000 nM) were added to per well of a 96-well plate. JZL195 (a positive control inhibitor) served as a positive control well, after incubation for 5 min at room temperature, per well was added with 10 µL MAGL substrate, and […] were vibrated for 10 s and placed for 10 min at room temperature, then an absorbance was detected at 410 nm. […] Graphad Prism 5.0 was taken to calculate IC50 curves fitting each inhibitor.

[2] = Tissue distribution test in mice; type: in vivo; design: content in the brain (tissue distribution): unit not given here; details: 16 mg/kg subcutaneous injection
[3] = tested on: reserpine-induced mice depression; test: Reserpine-induced mice depression; type: in vivo, ICR mouse; design: Awakening / Finger contact / Head touch / Fear / Autonomic activity / Eyelid closure / Upright: scale not given here; details: for Autonomic activity / Awakening / Eyelid closure / Fear / Finger contact / Head touch / Upright: 2 h after reserpine 4 mg/kg
Description: • Species: ICR mouse • Microbiological level: SPF • Quantity and sex of the animals purchased: male: 75; female: 75 • Quantity and sex of the animals used: male: 75; female: 75 • Body weight: 13-18 g when accepted
Group design: there were 50 pieces for each batch of animals and 3 batches in total; each batch of animals were randomly divided into 5 groups; low, middle and high-dose groups of the samples for test, blank control group and model group; a sample for test was tested per batch.
3.1 Animals were administrated via subcutaneous injection per day with doses of 4, 8 and 16 mg/kg for 6 d in total. 2 h later after the final administration, each animal was subcutaneously injected with 4 mg/kg reserpine except the blank control group; afterwards, indicators, such as, awakening, finger contact, fear, head touch, autonomic activity, upright and eyelid closure were determined 2 h later.
Data statistics and analysis were completed via a computer by SPSS 17.0 software and office 2016, and data statistics was inspected by Kruskal-Wallis. If the Kruskal-Wallis inspection result is significant ((P<0.05), multiple comparison inspection is further performed by a Mann-Whitney U nonparametric test method.

ulcerative colitis mice = test: Mice ulcerative colitis (DSS); type: in vivo, BALB/c mice; details: DSS mice, 100 mg/kg ig
From the text: Healthy male SPF-level BALB/c mice (8-week old and body mass: (20±2) g).
Modeling: the mice were randomly divided into […] at the end of the quarantine, 10 pieces for each group. The mice in the normal group drank normal water freely, and the rest groups of mice drank 1.0%-1.5% DSS solution freely for modeling, 7 d later after modeling, the mice in the modeling group drank normal water freely for 7 d, and 14 d served as a modeling period for four continuous periods, and the mice in the modeling group were administered at the same time.
End point of the experiment: experimental administration was performed for four periods, and dissection was performed on the 3rd and 4th day of the recovery period of the 4th period.
Test indicators: the mice were weighed twice a week after the beginning of the administration; diarrhea and hematochezia of the mice were observed, and times of hematochezia were recorded.
At the end of the experiment, the mice were dissected and weighed, and narcotized to take blood, then serum was preserved at -80° C. Spleen was taken and weighed to calculate the spleen index. The content of IL-1β in serum was detected via ELISA. Colorectum was cut and taken to measure the length of colorectum, then immobilized by formaldehyde and dyed by HE to detect the pathological change.

[4] = tested on: mice pain response induced by hot plate; test: Mice pain response induced by hot plate; type: in vivo, ICR mice; details: hot plate 55°C, positive control 10 mg/kg ig 7 d
Description: Female ICR mice (20±2) g were placed on an intelligent hot plate at 55±0.5° C., and latency (s) that the plantar of mice touched the hot plate until the occurrence of a hind paws licking response served as a pain threshold indicator; the mice (response latency <5 s or >30 s) or jumping mice were eliminated.
Grouping and administration were the same as those in Example 40.
The mice were continuously administered intragastrically for 7 consecutive days; the pain threshold of each group of mice was respectively determined once at 30, 60, 90 and 120 min after the final administration; the pain threshold greater than 60 s was calculated by 60 s.

[5] = tested on: mice with inflammatory pain; test: Pain threshold of mice with inflammatory pain (complete Freund's adjuvant); type: in vivo, SD mice; details: complete Freund's adjuvant paw model, positive control 10 mg/kg ig once per day
Description: […] (180±20) g were injected with a complete Freund’s adjuvant (50 µL/piece) at the right rear plantar of mice, and mice in the control group were injected with the corresponding volume of 0.5% sodium carboxymethylcellulose to establish a paw edema inflammatory pain model. After modeling, the mice were administered for 7 d continuously, and administered intragastrically once per day. Pain thresholds (s) of the mice were respectively determined on the 1st, 3rd and 7th day before administration and after modeling at different periods of time.
Grouping and administration were the same as those of Example 40.

[6] = tested on: mice writhing caused by acetic acid; test: Mice writhing caused by acetic acid; details: positive control 10 mg/kg ig
Description: Each compound was prepared into a suspension by 0.5% sodium carboxymethylcellulose respectively, and then set according to the dose, and each administration group was administered intragastrically; the model group was administered intragastrically an equal volume of 0.5% sodium carboxymethylcellulose.
Mice were intraperitoneally injected with acetic acid to cause a large area and more lasting painful stimuli in deep enterocoelia, causing mice to produce writhing responses. After being administered for 1 h, each dose group was intraperitoneally injected with 0.7% acetic acid-normal saline solution (0.1 ml/10 g).
The time (pain latent time) that the mice started to appear writhing after being intraperitoneally injected with acetic acid was recorded.
The writhing response times of each mouse within 20 min were recorded after injecting acetic acid to cause pain, and then, the writhing inhibition ratio of each administration group was calculated.
Writhing inhibition ratio = [(writhing times of the control group -writhing times of the administration group)/writhing times of the control group] × 100%
Experimental data is shown by x±s and subjected to variance analysis by SPSS 15.0 software.

[7] = tested on: reserpine-induced mice migraine; test: Reserpine-induced mice migraine; type: in vivo, ICR mice
Description: The mice in the blank control group and model group were administered intragastrically via a solvent from the 5th day after modeling, and the rest groups of mice were respectively administered corresponding medicaments and doses for intragastric administration for 10 consecutive days; 1 h later after the final administration, the mice were weighed; blood was taken at inner canthus to detect blood coagulation time; whole blood was taken, and cerebrum was taken on an ice and preserved at -20° C. for the subsequent experiment.
Behavioral test: tail suspension activity was performed; the position 1 cm away from the tail of the mice was glued by an adhesive tape on the 9th day of the test, and the adhesive tape was penetrated by a steel needle, and hung in a dark box such that the mice were hung upside down; then the mice struggling times (total number of overturning from hanging) within 2 min were observed.
The mice were weighed 1 h later after the final administration; blood of inner canthus was taken via a capillary to detect the blood coagulation time.
Blood was taken to detect the content of 5-HT in serum via high-performance liquid chromatography. Cerebrum was taken on an ice and precooled and cleaned slightly with 0.5% sodium carboxymethylcellulose, and then sucked dry with a filter paper, and placed into a cryogenic tube, and preserved at -20° C. for further use, then the content of 5-HT in brain tissues was detected by high performance liquid chromatography.
5-HT test method: a sample was precipitated with 10% perchloric acid solution according to 1:1, and then centrifuged to take supernatant for test. Chromatographic conditions: the chromatographic column is a SHIMADZU VP-ODS C18 column (250*4.6 mm, 5 um), the mobile phase is a methanol-0.01 mol/L potassium acetate buffer solution (10:90, V/V, PH is adjusted to 4.00 with 0.2 mol/L citric acid) for gradient elution; the column temperature is 25° C., flow rate is 1.00 ml/min and test wavelength is 275 nm.

## O=C(Nc1ccccc1)C1CCN(C(=O)c2ccc(Oc3ccccc3)cc2)CC1 [MAGLZ-II-01]
[1]
  IC50: 0.045 µM
[2]; 1.0 h
  content in the brain (tissue distribution): 0
[2]; 2.0 h
  content in the brain (tissue distribution): 0.6
[2]; 5.0 h
  content in the brain (tissue distribution): 0.9

## Cc1cc(C)cc(NC(=O)C2CCN(C(=O)c3ccc(Oc4ccccc4)cc3)CC2)c1 [MAGLZ-II-02]
[1]
  IC50: 0.027 µM
[2]; 1.0 h
  content in the brain (tissue distribution): 0
[2]; 2.0 h
  content in the brain (tissue distribution): 1.2
[2]; 5.0 h
  content in the brain (tissue distribution): 3.7

## COc1cccc(NC(=O)C2CCN(C(=O)c3ccc(Oc4ccccc4)cc3)CC2)c1 [MAGLZ-II-03]
[1]
  IC50: 0.749 µM

## CCCC(=O)Oc1cccc(C(=O)N2CCC(C(=O)Nc3cccc(Cl)c3)CC2)c1 [MAGLZ-II-11F]
[1]
  IC50: 0.126 µM

## N[C@H](Cc1ccc(O)cc1)C(=O)Oc1cccc(C(=O)N2CCC(C(=O)Nc3cccc(Cl)c3)CC2)c1 [MAGLZ-II-11J]
[1]
  IC50: 1.6 µM

## COc1cccc(C(=O)N2CCC(C(=O)Nc3cccc(Cl)c3)CC2)c1 [MAGLZ-II-14]
[1]
  IC50: 0.333 µM

## O=C(Nc1cccc(Cl)c1)C1CCN(C(=O)c2ccc(Oc3ccccc3)cc2)CC1 [MAGLZ-II-16]
[2]
  content in the brain, ranking of the test substances: highest
[2]; 1.0 h
  content in the brain (tissue distribution): 0
[2]; 2.0 h
  content in the brain (tissue distribution): 32.8
[2]; 5.0 h
  content in the brain (tissue distribution): 16.9
[3]; 4, 8 and 16 mg/kg sc 6 d
  effect on reserpine-induced depression (conclusion): has a certain effect
[3]; high dose 16 mg/kg sc 6 d
  Autonomic activity: 0.6±0.6
  Awakening: 2±0
  Eyelid closure: 0±0
  Fear: 0±0
  Finger contact: 1.6±0.8
  Head touch: 0.8±0.98
  Upright: 0.4±1.2
[3]; low dose 4 mg/kg sc 6 d
  Autonomic activity: 0±0
  Awakening: 2±0
  Eyelid closure: 0±0
  Fear: 0±0
  Finger contact: 1.4±0.92
  Head touch: 0.4±0.8
  Upright: 0±0
[3]; middle dose 8 mg/kg sc 6 d
  Autonomic activity: 0.2±0.6
  Awakening: 1.8±0.6
  Eyelid closure: 0±0
  Fear: 0±0
  Finger contact: 1.2±0.98
  Head touch: 0.8±0.98
  Upright: 0±0

## O=C(Nc1ccc(Cl)c(Cl)c1)C1CCN(C(=O)c2ccc3ccccc3c2)CC1 [MAGLZ-II-24]
[1]
  IC50: 0.275 µM

## O=C(Nc1cc(Cl)cc(Cl)c1)C1CCN(C(=O)c2ccc3ccccc3c2)CC1 [MAGLZ-II-25]
[1]
  IC50: 0.139 µM

## O=C(Nc1cccc(Cl)c1)C1CCN(C(=O)c2ccc3cc(O)ccc3c2)CC1 [MAGLZ-II-29]
[1]
  IC50: 0.252 µM

## O=C(c1cccc(O)c1)N1CCC(c2nc3cc(Cl)ccc3o2)CC1 [MAGLZ-II-30]
[1]
  IC50: 0.011 µM

## Nc1ccc(O)c(C(=O)O)c1 [Mesalazine, reference compound]
Ulcerative colitis mice
  Total times of hematochezia within the four periods: 32.80±4.96
Ulcerative colitis mice; four periods
  Colon length: 6.66±0.68 cm
Ulcerative colitis mice; serum, ELISA
  IL-1 content: 48.33 ± 6.49 pg/mL

## O=C(O)Cc1ccccc1Nc1c(Cl)cccc1Cl [Positive medicament, diclofenac sodium, reference compound]
[4]; 30 min after final administration
  Pain threshold: 22.32 ± 6.76 s
[4]; 60 min
  Pain threshold: 24.34 ± 8.19 s
[4]; 90 min
  Pain threshold: 22.64 ± 6.48 s
[4]; 120 min
  Pain threshold: 22.52 ± 6.91 s
[5]; 0 d
  Pain threshold: 12.71 ± 2.55 s
[5]; 1 d
  Pain threshold: 6.38±0.91^∗ s
[5]; 3 d
  Pain threshold: 8.05±1.23^∗ s
[5]; 7 d
  Pain threshold: 9.00±0.911^∗ s
[6]; 1 h before 0.7% acetic acid ip, within 20 min
  Writhing times: 24.5±12.9
[6]; time to first writhing
  Latent time: 358.5 ± 172.7 s
[6]; writhing inhibition
  Inhibition ratio: 37.7%

## CN(C)CCc1c[nH]c2ccc(C[C@H]3COC(=O)N3)cc12 [Zolmitriptan, reference compound]
[7]; reserpine 0.2 mg/kg sc mice, 0.5 mg/kg ig 10 d, 1 h after final administration
  Blood coagulation time: 185.12±38.86 S
[7]; reserpine mice, 0.5 mg/kg ig 10 d
  brain tissue 5-HT: 1.93 ± 0.37 nmol/g
[7]; reserpine mice, 0.5 mg/kg ig, 9th day
  Times of tail suspension (struggling times within 2 min): 18.13 ± 3.94
